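Compound exposure: 48 hours, 5 concentrations, 96-well plates. Here, GI50 denotes the concentration required for 50% inhibition of growth.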 The source made the active and inactive calls. Rule as the data show it: active = GI50 up to about 1.1 µM and inactive = higher.
Experiments:
Assay in all cases: growth of human tumour cells (NCI), 48 h
[1] = system: 786-0
[2] = system: A498
[3] = system: A549
[4] = system: ACHN
[5] = system: CCRF-CEM
[6] = system: DU-145
[7] = system: HCC 2998
[8] = system: M14
[9] = system: MDA-MB-435
[10] = system: Malme-3M
[11] = system: NCI-H226
[12] = system: NCI/ADR-RES
[13] = system: OVCAR-3
[14] = system: OVCAR-5
[15] = system: SW-620
[16] = system: T47D
[17] = system: U-251
[18] = system: UACC-257
[19] = system: IGROV-1
[20] = system: K562

Structure (SMILES)	GI50 [1]	GI50 [2]	GI50 [3]	GI50 [4]	GI50 [5]	GI50 [6]	GI50 [7]	GI50 [8]	GI50 [9]	GI50 [10]	GI50 [11]	GI50 [12]	GI50 [13]	GI50 [14]	GI50 [15]	GI50 [16]	GI50 [17]	GI50 [18]	GI50 [19]	GI50 [20]
O=[N+]([O-])c1cn[n+]([O-])c2ccccc12	2.43 µM (inactive)	23.1 µM (inactive)	12 µM (inactive)	1.13 µM (inactive)	2.74 µM (inactive)	1.05 µM (active)	1.7 µM (inactive)	2.87 µM (inactive)	13.8 µM (inactive)	15.4 µM (inactive)	7.36 µM (inactive)	5.14 µM (inactive)	2.55 µM (inactive)	12.4 µM (inactive)	1.98 µM (inactive)	3.7 µM (inactive)	4.19 µM (inactive)	11.4 µM (inactive)	–	–
O=C(O)c1ccc([N+](=O)[O-])c2cc3cnccc3nc12	–	70 µM (inactive)	–	–	2.31 µM (inactive)	33 µM (inactive)	22.3 µM (inactive)	17.8 µM (inactive)	26.9 µM (inactive)	15.2 µM (inactive)	30.3 µM (inactive)	25.9 µM (inactive)	21.2 µM (inactive)	33.7 µM (inactive)	–	18.6 µM (inactive)	19.9 µM (inactive)	–	34.7 µM (inactive)	5.78 µM (inactive)
CC1(C)OC(=O)N(c2ccccc2)C12C=Cc1cc([N+](=O)[O-])ccc1O2 (configuration not stated)	77.3 µM (inactive)	32.4 µM (inactive)	53.2 µM (inactive)	97.1 µM (inactive)	29.1 µM (inactive)	29.4 µM (inactive)	29.2 µM (inactive)	11 µM (inactive)	20 µM (inactive)	–	44 µM (inactive)	30.2 µM (inactive)	21.7 µM (inactive)	26.9 µM (inactive)	65.6 µM (inactive)	33 µM (inactive)	35.8 µM (inactive)	23.5 µM (inactive)	32.7 µM (inactive)	29 µM (inactive)
NC1=NC(NCC2(CO)CCC2)=CC(OCC2(CO)CCC2)N1 (configuration not stated)	> 100 µM (inactive)	> 100 µM (inactive)	> 100 µM (inactive)	–	> 100 µM (inactive)	> 100 µM (inactive)	> 100 µM (inactive)	> 100 µM (inactive)	> 100 µM (inactive)	> 100 µM (inactive)	> 100 µM (inactive)	> 100 µM (inactive)	> 100 µM (inactive)	> 100 µM (inactive)	> 100 µM (inactive)	62.2 µM (inactive)	> 100 µM (inactive)	> 100 µM (inactive)	> 100 µM (inactive)	44.8 µM (inactive)
CCC1OC2C(CC=C(C)C)=C3OC(C)(O)C(C)(CC)C(OC(=O)c4ccccc4)C3=C3OC(=O)C=C1C32 (configuration not stated)	41.7 µM (inactive)	40.3 µM (inactive)	41.4 µM (inactive)	39.6 µM (inactive)	59.2 µM (inactive)	32.7 µM (inactive)	21.8 µM (inactive)	45.2 µM (inactive)	36.1 µM (inactive)	39 µM (inactive)	–	36.3 µM (inactive)	51.6 µM (inactive)	54.1 µM (inactive)	57.1 µM (inactive)	29 µM (inactive)	67.9 µM (inactive)	38.4 µM (inactive)	50.7 µM (inactive)	39 µM (inactive)
CCOc1ccc(/N=N/C2C(=O)N(C(=O)CC(=O)Nc3ccc(C)cc3)N=C2C)cc1 (configuration not stated)	16 µM (inactive)	13.2 µM (inactive)	34.7 µM (inactive)	50.8 µM (inactive)	43.6 µM (inactive)	38.6 µM (inactive)	19 µM (inactive)	52.7 µM (inactive)	2.94 µM (inactive)	47.5 µM (inactive)	26.3 µM (inactive)	24.4 µM (inactive)	20.6 µM (inactive)	> 100 µM (inactive)	21.6 µM (inactive)	37.8 µM (inactive)	15.1 µM (inactive)	> 100 µM (inactive)	15.9 µM (inactive)	–
N=C1CCCC1C(=S)SCCC(N)=O (configuration not stated)	> 100 µM (inactive)	> 100 µM (inactive)	> 100 µM (inactive)	> 100 µM (inactive)	> 100 µM (inactive)	> 100 µM (inactive)	> 100 µM (inactive)	> 100 µM (inactive)	> 100 µM (inactive)	> 100 µM (inactive)	> 100 µM (inactive)	> 100 µM (inactive)	> 100 µM (inactive)	> 100 µM (inactive)	> 100 µM (inactive)	> 100 µM (inactive)	> 100 µM (inactive)	> 100 µM (inactive)	> 100 µM (inactive)	–
O=C(/C=C/c1ccccc1Br)c1ccccc1	2.07 µM (inactive)	3.39 µM (inactive)	12 µM (inactive)	1.8 µM (inactive)	0.259 µM (active)	8.07 µM (inactive)	2.89 µM (inactive)	6.61 µM (inactive)	2.46 µM (inactive)	–	17.1 µM (inactive)	6.08 µM (inactive)	10.4 µM (inactive)	16.1 µM (inactive)	1.58 µM (inactive)	4.52 µM (inactive)	1.56 µM (inactive)	9.68 µM (inactive)	2.99 µM (inactive)	1.94 µM (inactive)
